Literature values in patent US5993850A, “Preparation of multivesicular liposomes for controlled release of encapsulated biologically active substances” (priority 1994, dated 1999).

Test system: strains of both gram negative and gram positive bacteria
Conditions: background statement; cited from earlier work

NCC[C@H](O)C(=O)N[C@@H]1C[C@H](N)[C@@H](O[C@H]2O[C@H](CN)[C@@H](O)[C@H](O)[C@H]2O)[C@H](O)[C@H]1O[C@H]1O[C@H](CO)[C@@H](O)[C@H](N)[C@H]1O [amikacin]
antibacterial activity: clinically significant activity against strains of both gram negative and gram positive bacteria
